PMC6095626, “Screening of the Pathogen Box for inhibitors with dual efficacy against Giardia lamblia and Cryptosporidium parvum” (PLoS Neglected Tropical Diseases, 2018)

Assays:
[1] = system: G. lamblia trophozoites (luciferase expressing, WBC6); assay: microbe, parasite or virus in culture; format: cell-based, Giardia lamblia; conditions: for Giardia (16 uM) Mean % inhibition: initial Pathogen Box screen, single concentration 16 µM, inhibition compared to DMSO wells
Experimental: Trophozoites were harvested by chilling cultures on ice for 30 minutes and plated by adding 150 μL per well at a concentration of 250,000 cells/mL. Metronidazole (Sigma, St. Louis, MO) was used as a control and was serially diluted 1:2 from 40 μM to 0.04 μM and 150 μL was added to the 150 μL of the G. lamblia trophozoites. Plates were covered in plastic low-evaporation lids, sealed in individual anaerobic BD GasPak Bio-Bags (Becton Dickinson, San Jose, CA) and incubated at 37 °C for 24 hours. […] A duplicate plate was concurrently set up and assayed using a MOXI Z Mini Automated Cell Counter Kit (Orflo, Ketchum, ID). Results obtained from the bioluminescence assay and the MOXI counter data were compared to evaluate their correlation to each another. Albendazole (Sigma, St. Louis, MO), an alternative giardiasis therapeutic, was assayed in concentrations from 4 μM to 0.004 μM with only the luciferase expressing G. lamblia cells. […]

[2] = system: C. parvum (UGA1 Nluc expressing strain in HCT-8 cells); assay: microbe, parasite or virus in culture; format: cell-based, Cryptosporidium parvum; conditions: for Crypto (10 uM) Mean % inhibition: initial Pathogen Box screen, single concentration 10 µM, inhibition compared to DMSO wells
Experimental: Growth inhibition and EC50 determination assays were performed using UGA1 Nluc expressing C. parvum strain in HCT-8 cells (ATCC^©, Manassas, VA) as previously described. HCT-8 cells were inoculated onto 96-well plates and allowed to grow for 48 hours to 90–100% confluence and then treated with single concentration (10 μM) or serially diluted compounds prior to oocyst infection. C. parvum oocysts were incubated for 10 minutes in 10% bleach at room temperature and then washed with DPBS. […] The cell monolayers were lysed for 1 hour before adding Nano-Glo® luciferase reagent (Promega, Madison, WI), and measuring relative luminescence units (RLU) in an EnVision Plate Reader (Perkin Elmer, Waltham, MA). Several parameters, including reproducibility and reliability, were previously evaluated to optimize this assay for low and high-throughput (HTP) screening of small molecule compounds against C. parvum. EC50 values were calculated using Prism 7 software (GraphPad Software, San Diego, CA).
C. parvum screening against the Pathogen Box compounds was performed as previously described starting at a concentration of 10 μM [23].

| SMILES | Giardia (16 uM) Mean % inhibition [1] | Crypto (10 uM) Mean % inhibition [2] | G. lamblia EC50 ([1]; luciferase expressing G. lamblia trophozoites, 24 hours, D-luciferin bioluminescence read-out) | C. parvum EC50 ([2]; Nluc C. parvum in HCT-8 cells, 48 hours) |
| --- | --- | --- | --- | --- |
| CCN(CC)CCCN1CCN(C(=O)c2cccc(-c3noc(C(F)(F)F)n3)c2)CC1 [MMV022236] | 8% | 38% |  |  |
| c1ccc2c(c1)CN(CC1CC1)CC1(CCN(Cc3c[nH]c4cnccc34)CC1)O2 [MMV023183] | 72% | X* (Mean or standard deviation are negative but not significantly different from the control to be a growth promoter) |  |  |
| Cc1nc(-c2cccc(NCc3ccccc3)c2)[nH]c1C [MMV023227] | 58% | 25% |  |  |
| Nc1nccc2ccc(-c3ccc4nccn4c3)cc12 [MMV023233] | 85% | X* (Mean or standard deviation are negative but not significantly different from the control to be a growth promoter) |  |  |
| Nc1ncc(-c2cn[nH]c2)cc1-c1nc2cc(Cl)cnc2[nH]1 [MMV023370] | 38% | X* (Mean or standard deviation are negative but not significantly different from the control to be a growth promoter) |  |  |
| O=C(NC1CCN(c2ccnc3ccccc23)C1)c1cccc(C(F)(F)F)c1 (stereo not drawn) [MMV023388] | 86% | X* (Mean or standard deviation are negative but not significantly different from the control to be a growth promoter) |  |  |
| NS(=O)(=O)c1cccc(-c2ccc3ncc(N4CCOCC4)nc3c2)c1 [MMV023860] | 27% | 89% |  |  |
| CC(C)(C)c1cc(C(=O)N2CCN(c3nccnc3C#N)CC2)n(Cc2ccccc2)n1 [MMV023949] | 36% | 55% |  |  |
| O=C(Nc1cccc(-c2ccc(NCCCN3CCCC3)nc2)c1)c1ccccc1 [MMV023953] | 82% | X* (Mean or standard deviation are negative but not significantly different from the control to be a growth promoter) |  |  |
| c1cncc(NCc2ccc(-c3cc4ccncc4cc3OC3CCNCC3)s2)c1 [MMV023969] | 11% | 25% |  |  |
| COc1ccc(-c2cnc3ccc(N4CCCC4)nn23)cc1OC [MMV023985] | X* (Mean or standard deviation are negative but not significantly different from the control to be a growth promoter) | 93% |  |  |
| O=C(Nc1ccccc1)c1ccc(-c2cc3ccncc3cc2OC2CCNCC2)s1 [MMV024035] | 66% | 27% |  |  |
| NS(=O)(=O)c1cncc(-c2ccc3nccc(-c4cn[nH]c4)c3n2)c1 [MMV024101] | 14% | X* (Mean or standard deviation are negative but not significantly different from the control to be a growth promoter) |  |  |
| Cc1ccc(S(=O)(=O)n2cc(-c3ccnc(N)c3)c3cc(Br)cnc32)cc1 [MMV024114] | 78% | 86% | not potent |  |
| CN(C)CCNC(=O)N1CCCN(c2ncnc3cc(-c4ccccc4)sc23)CC1 [MMV024195] | 31% | 15% |  |  |
| Cc1ccc2[nH]c(C3CCCNC3)c(-c3ccncc3)c2c1 (stereo not drawn) [MMV024311] | 22% | 56% |  |  |
| O=C(NC1CC1)c1ccc(N2CCC(Cc3ccccc3)CC2)nc1 [MMV024397] | X* (Mean or standard deviation are negative but not significantly different from the control to be a growth promoter) | X* (Mean or standard deviation are negative but not significantly different from the control to be a growth promoter) |  |  |
| O=C(Nc1cccc(Cl)c1)c1cnc(N2CCN(c3ccncc3)CC2)c(Cl)c1 [MMV024406] | 91% | 91% |  | not potent |
| CN(C(=O)c1cc2c(-c3cncnc3)cccc2[nH]1)c1ccccc1 [MMV024443] | X* (Mean or standard deviation are negative but not significantly different from the control to be a growth promoter) | 87% |  |  |
| Cc1cccc(C(=O)Nc2ccnc(N(C)C3CCN(CC(C)C)CC3)c2)c1 [MMV024829] | 89% | X* (Mean or standard deviation are negative but not significantly different from the control to be a growth promoter) |  |  |
| O=C(Nc1ccc(N2CCNCC2)nc1)c1oc(-c2ccccc2)nc1C(F)(F)F [MMV024937] | 7% | X* (Mean or standard deviation are negative but not significantly different from the control to be a growth promoter) |  |  |

| SMILES | Giardia (16 uM) Mean % inhibition [1] | Crypto (10 uM) Mean % inhibition [2] | G. lamblia EC50 ([1]; luciferase expressing G. lamblia trophozoites, 24 hours, D-luciferin bioluminescence read-out) | C. parvum EC50 ([2]; Nluc C. parvum in HCT-8 cells, 48 hours) |
| --- | --- | --- | --- | --- |
| CS(=O)(=O)c1cccc(-c2cnc3[nH]cc(-c4ccc(CCC(=O)O)cc4)c3c2)c1 [MMV026020] | 19% | X* (Mean or standard deviation are negative but not significantly different from the control to be a growth promoter) |  |  |
| Nc1nccc2ccc(Oc3ccncc3)cc12 [MMV026313] | X* (Mean or standard deviation are negative but not significantly different from the control to be a growth promoter) | X* (Mean or standard deviation are negative but not significantly different from the control to be a growth promoter) |  |  |
| CCn1ncc2c(NC3CCOCC3)c(CNC(=O)c3ccnn3C)c(C)nc21 [MMV026356] | 68% | 31% |  |  |
| OCc1ccc(-c2cncc(Nc3cccc(Cl)c3)c2)cc1 [MMV026468] | 39% | X* (Mean or standard deviation are negative but not significantly different from the control to be a growth promoter) |  |  |
| O=C(NCCc1ccccc1)c1cc(-c2cccnc2)cnc1NCC1CC1 [MMV026490] | 12% | X* (Mean or standard deviation are negative but not significantly different from the control to be a growth promoter) |  |  |
| CC(C)(C)CN1C(=O)C(c2ccccc2)(c2ccccc2)N=C1N [MMV026550] | 35% | X* (Mean or standard deviation are negative but not significantly different from the control to be a growth promoter) |  |  |
| CC(C)(CN)c1nc(-c2ccc(Cl)c(O)c2)c(-c2ccnc(N)n2)[nH]1 [MMV030734] | 35% | X* (Mean or standard deviation are negative but not significantly different from the control to be a growth promoter) |  |  |
| CNC(=O)C1Cc2c([nH]c3cc(Cl)ccc23)C2(CCN(CCc3ccccc3)CC2)N1 (stereo not drawn) [MMV031011] | 81% | 72% |  |  |
| FC(F)(F)c1cccc(-c2nc3c(NCc4ccncc4)nccc3[nH]2)c1 [MMV032967] | 26% | 27% |  |  |
| O=C1COCc2ccc(Br)cc2N1Cc1ccc(C(F)(F)F)cc1 [MMV032995] | 38% | 41% |  |  |
| c1ccc(Oc2ccc(-c3cc(N4CCOCC4)n[nH]3)cc2)cc1 [MMV045105] | 16% | 19% |  |  |
| COc1cc(C(F)(F)F)nc2ccc(C)c(N)c12 [MMV047015] | 65% | 1.83% |  |  |
| N#Cc1ccc(-c2ccc(OCC(N)=O)cc2)cc1 [MMV053220] | 74% | 52% |  |  |
| CC(=O)N1CCc2cc3nc(C)cc(C)c3cc21 [MMV054312] | 45% | 59% |  |  |
| Cc1cc(C)nc(-n2nc(C)cc2Nc2ccccc2)n1 [MMV062221] | 35% | 50% |  |  |
| Cc1nn(Cc2ccccc2)c(Cl)c1C(=O)NC1CCCCCC1 [MMV063404] | 55% | 75% |  |  |
| FC(F)(F)c1nnc2ccc(Cl)nn12 [MMV069458] | X* (Mean or standard deviation are negative but not significantly different from the control to be a growth promoter) | 65% |  |  |
| O=C1N(Cc2cc3ccccc3s2)CC2CN(Cc3ccccc3)CCN12 (stereo not drawn) [MMV084603] | 62% | 43% |  |  |
| O=C(Nc1cnc2ccccc2c1)c1cccc(-n2cnnn2)c1 [MMV084864] | 63% | 34% |  |  |
| COc1cncc(-c2cncc(N3CCN(c4ccncc4)CC3)n2)c1 [MMV085071] | 19% | 47% |  |  |
